Data on 24 molecules can be found in patent publication US9718760B2, “Plasminogen activator inhibitor-1 inhibitors and methods of use thereof” (THE REGENTS OF THE UNIVERSITY OF MICHIGAN, priority 2012, dated 2017).

In one assay the target is T1, recombinant active human PAI-1 (Homo sapiens (Human), UniProt P05121). The assay can be described thus: Fluorometric PAI-1/uPA IC50 plate assay at pH 7.4. In kind it is biochemical. The settings on record: physiologic buffer (40 mM HEPES, 100 mM NaCl, 0.05% Tween-20, 10% DMSO), read-out: PAI-1/uPA IC50 in buffer. The protocol: To determine the efficacy of various synthesized compounds as PAI-1 inhibitors, a fluorometric plate assay was carried out to measure the half maximal inhibitory concentration (IC50) of these compounds on recombinant active human PAI-1 in vitro. An IC50 is a measure of the effectiveness of a compound in inhibiting biological or biochemical function. Stated another way, IC50 represents the concentration of a drug that is required for 50% inhibition in vitro.
T1 sequence (P05121 24-402): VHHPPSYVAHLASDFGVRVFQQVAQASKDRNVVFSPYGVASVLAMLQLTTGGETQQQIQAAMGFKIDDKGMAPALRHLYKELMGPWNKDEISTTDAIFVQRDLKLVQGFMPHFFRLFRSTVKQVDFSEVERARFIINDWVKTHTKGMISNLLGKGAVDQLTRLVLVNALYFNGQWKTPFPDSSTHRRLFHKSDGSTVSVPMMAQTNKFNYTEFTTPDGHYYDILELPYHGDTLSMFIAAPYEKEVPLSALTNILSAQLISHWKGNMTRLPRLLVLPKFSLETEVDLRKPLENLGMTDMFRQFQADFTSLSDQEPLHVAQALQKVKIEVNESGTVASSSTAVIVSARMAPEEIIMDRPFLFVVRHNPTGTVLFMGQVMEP
PAI-1 inhibitor compounds were dissolved in DMSO to a final concentration of (10-50 mM), depending upon solubility. Compounds were then diluted in physiologic buffer (40 mM HEPES, 100 mM NaCl, 0.05% Tween-20, pH7.4) containing 10% DMSO and a dilution series (from 0 to 1000 uM depending on solubility) was prepared. 80 μL of compound was added per well to a 96-well black, opaque microplate in duplicate. 10 μL of 20 nM Recombinant active human PAI-1 (Molecular Innovations) in physiologic buffer (40 mM HEPES, 100 mM NaCl, 0.05% Tween-20, 10% DMSO, pH 7.4), or […] physiologic buffer with 10% human plasma, was added and the mixture was agitated for 15 minutes at room temperature. 10 μL of 25 nM uPA (Rheotromb®) was added to each reaction well and the plate was agitated for an additional 30 minutes at room temperature. Tripeptide aminomethylcoumarin Gly-Gly-Arg-AMC (Calbiochem) fluorogenic substrate (100 μL of 100 μM) was then added and residual uPA activity was determined based upon cleavage of this substrate. The rate of AMC release by uPA (fluorescence) was measured at an excitation wavelength of 370 nm and an emission wavelength of 440 nm. Controls included PAI-1 and uPA in the absence of compound and uPA alone. Percent PAI-1 inhibition was calculated using the following formula: [(uPA alone-uPA/PAI-1+ compound)/(uPA alone-PAI-1/uPA)]*100%. The IC50 was calculated using Graphit (IC50 0-100%).
Take `CON(C)C(=O)C(=O)NCc1ccc(Cl)c(C(F)(F)F)c1` [C328]: the IC50 worked out at 713 µM.

`O=C(NCc1ccc(Cl)c(C(F)(F)F)c1)C(=O)NNS(=O)(=O)c1ccccc1` [C334]: the IC50 worked out at 189 µM.

As for `N#Cc1ccc(CNC(=O)C(=O)NN)cc1` [C336], the IC50 turned out to be 5470 µM.

For the molecule `NNC(=O)C(=O)NCc1cc(C(F)(F)F)cc(C(F)(F)F)c1` [C339], the IC50 amounted to 282 µM.

Regarding `NNC(=O)C(=O)NCc1cc(F)cc(F)c1` [C340], the IC50 stood at 337 µM.

Turning to `Cc1ccc(F)cc1CNC(=O)C(=O)NN` [C341], the IC50 was 900 µM.

On to `O=C(CCc1ccc(O)c(O)c1)NCc1cccc(C(F)(F)F)c1` [C344], for which the IC50 turned out to be 1000 µM.

Turning to `O=C(CCc1ccc(O)c(O)c1)NCc1ccc(C(F)(F)F)cc1` [C345], the IC50 was determined as 1470 µM.

Turning to `O=C(/C=C/c1ccc(O)c(O)c1)NCc1ccc(Cl)c(C(F)(F)F)c1` [C346], the IC50 stood at 353 µM.

For `O=C(Cc1ccc(O)c(O)c1)NCc1ccc(Cl)c(C(F)(F)F)c1` [C347], the IC50 amounted to 888 µM.

`O=C(NCc1ccc(Cl)c(C(F)(F)F)c1)c1ccc(O)c(O)c1` [C348]: the IC50 came to 99 µM.

Consider `O=C(CCc1ccc(O)c(O)c1)NCc1cc(F)c(F)c(F)c1` [C356], for which the IC50 came out at 1100 µM.

For the molecule `O=C(CCc1ccc(O)c(O)c1)NCc1cccc(OC(F)(F)F)c1` [C357], the IC50 came to 1370 µM.

As for `Cc1cc(CNC(=O)CCc2ccc(O)c(O)c2)ccc1F` [C358], the IC50 is 1500 µM.

For `O=C(CCc1ccc(O)c(O)c1)NCc1ccc(Cl)cc1` [C359], the IC50 was 3370 µM.

With `O=C(NCc1ccc(Br)cc1)c1ccc(O)c(O)c1` [C360], the IC50 was 164 µM.

As for `O=C(NCc1ccc(Cl)cc1)c1ccc(O)c(O)c1` [C361], the IC50 is 232 µM.

As to `Cc1ccc(CNC(=O)C(=O)NN)cc1` [C362], the IC50 was 533 µM.

On to `O=C(NCc1ccc(C(F)(F)F)cc1)c1ccc(O)c(O)c1` [C363], for which the IC50 stood at 199 µM.

Turning to `O=C(NCc1cccc(C(F)(F)F)c1)c1ccc(O)c(O)c1` [C364], the IC50 worked out at 475 µM.

The assay is the same for the next values; noted with them: physiologic buffer with 1.5% BSA (15 mg/mL), read-out: PAI-1/uPA IC50 in 1.5% BSA buffer.
Regarding `CON(C)C(=O)C(=O)NCc1ccc(Cl)c(C(F)(F)F)c1` [C328], the IC50 worked out at 345 µM.

On to `N#Cc1ccc(CNC(=O)C(=O)NN)cc1` [C336], for which the IC50 stood at 892 µM.

As to `NNC(=O)C(=O)NCc1cc(C(F)(F)F)cc(C(F)(F)F)c1` [C339], the IC50 was 247 µM.

Turning to `NNC(=O)C(=O)NCc1cc(F)cc(F)c1` [C340], the IC50 worked out at 249 µM.

With `Cc1ccc(F)cc1CNC(=O)C(=O)NN` [C341], the IC50 came out at 1460 µM.

Consider `O=C(CCc1ccc(O)c(O)c1)NCc1cccc(C(F)(F)F)c1` [C344], for which the IC50 is 830 µM.

Regarding `O=C(CCc1ccc(O)c(O)c1)NCc1ccc(C(F)(F)F)cc1` [C345], the IC50 stood at 673 µM.

Regarding `O=C(Cc1ccc(O)c(O)c1)NCc1ccc(Cl)c(C(F)(F)F)c1` [C347], the IC50 is 309 µM.

Regarding `O=C(NCc1ccc(Cl)c(C(F)(F)F)c1)c1ccc(O)c(O)c1` [C348], the IC50 worked out at 454 µM.

For the molecule `O=C(CCc1ccc(O)c(O)c1)NCc1cc(F)c(F)c(F)c1` [C356], the IC50 amounted to 1240 µM.

As to `O=C(CCc1ccc(O)c(O)c1)NCc1cccc(OC(F)(F)F)c1` [C357], the IC50 was 1230 µM.

As for `Cc1cc(CNC(=O)CCc2ccc(O)c(O)c2)ccc1F` [C358], the IC50 came to 1230 µM.

In the case of `O=C(CCc1ccc(O)c(O)c1)NCc1ccc(Cl)cc1` [C359], the IC50 stood at 2080 µM.

For the molecule `O=C(NCc1ccc(Br)cc1)c1ccc(O)c(O)c1` [C360], the IC50 is 1670 µM.

For `O=C(NCc1ccc(Cl)cc1)c1ccc(O)c(O)c1` [C361], the IC50 stood at 2000 µM.

`Cc1ccc(CNC(=O)C(=O)NN)cc1` [C362]: the IC50 stood at 353 µM.

In the case of `O=C(NCc1ccc(C(F)(F)F)cc1)c1ccc(O)c(O)c1` [C363], the IC50 turned out to be 751 µM.

For `O=C(NCc1cccc(C(F)(F)F)c1)c1ccc(O)c(O)c1` [C364], the IC50 is 898 µM.

The assay is the same for the next values; noted with them: physiologic buffer with 10% human plasma, read-out: PAI-1/uPA IC50 in 10% plasma buffer.
`CON(C)C(=O)C(=O)NCc1ccc(Cl)c(C(F)(F)F)c1` [C328]: the IC50 worked out at 318 µM.

Regarding `N#Cc1ccc(CNC(=O)C(=O)NN)cc1` [C336], the IC50 was found to be 851 µM.

As to `NNC(=O)C(=O)NCc1cc(C(F)(F)F)cc(C(F)(F)F)c1` [C339], the IC50 is 303 µM.

On to `NNC(=O)C(=O)NCc1cc(F)cc(F)c1` [C340], for which the IC50 worked out at 272 µM.

Consider `Cc1ccc(F)cc1CNC(=O)C(=O)NN` [C341], for which the IC50 stood at 1870 µM.

Take `O=C(CCc1ccc(O)c(O)c1)NCc1cccc(C(F)(F)F)c1` [C344]: the IC50 came to 866 µM.

Turning to `O=C(CCc1ccc(O)c(O)c1)NCc1ccc(C(F)(F)F)cc1` [C345], the IC50 was 539 µM.

Consider `O=C(Cc1ccc(O)c(O)c1)NCc1ccc(Cl)c(C(F)(F)F)c1` [C347], for which the IC50 was determined as 293 µM.

On to `O=C(NCc1ccc(Cl)c(C(F)(F)F)c1)c1ccc(O)c(O)c1` [C348], for which the IC50 worked out at 240 µM.

With `O=C(CCc1ccc(O)c(O)c1)NCc1cc(F)c(F)c(F)c1` [C356], the IC50 stood at 544 µM.

Turning to `O=C(CCc1ccc(O)c(O)c1)NCc1cccc(OC(F)(F)F)c1` [C357], the IC50 amounted to 567 µM.

Take `Cc1cc(CNC(=O)CCc2ccc(O)c(O)c2)ccc1F` [C358]: the IC50 stood at 619 µM.

On to `O=C(CCc1ccc(O)c(O)c1)NCc1ccc(Cl)cc1` [C359], for which the IC50 worked out at 974 µM.

For `O=C(NCc1ccc(Br)cc1)c1ccc(O)c(O)c1` [C360], the IC50 came to 771 µM.

On to `O=C(NCc1ccc(Cl)cc1)c1ccc(O)c(O)c1` [C361], for which the IC50 came to 851 µM.

Take `Cc1ccc(CNC(=O)C(=O)NN)cc1` [C362]: the IC50 turned out to be 229 µM.

Consider `O=C(NCc1ccc(C(F)(F)F)cc1)c1ccc(O)c(O)c1` [C363], for which the IC50 was found to be 309 µM.

Turning to `O=C(NCc1cccc(C(F)(F)F)c1)c1ccc(O)c(O)c1` [C364], the IC50 came to 533 µM.

The target of another assay is T1, recombinant active human PAI-1. The assay can be described thus: Fluorometric PAI-1/uPA IC50 plate assay at pH 7.8. It is filed as biochemical. The settings on record: physiologic buffer. The method, then:
To determine the efficacy of various synthesized compounds as PAI-1 inhibitors at pH 7.8, additional fluorometric plate assays were carried out to measure the half maximal inhibitory concentration (IC50) of these compounds on recombinant active human PAI-1 in vitro.
PAI-1 inhibitor compounds were dissolved in DMSO to a final concentration of (10-50 mM), depending upon solubility. […] Fluorescence, as a measure of the rate of AMC release by uPA, was read at the following wavelengths; excitation 370 nm, emission 440 nm. Controls included PAI-1 and uPA in the absence of compound and uPA alone. Percent PAI-1 inhibition was calculated using the following formula: [(uPA alone-uPA/PAI-1+ compound)/(uPA alone-PAI-1/uPA)]*100%. The IC50 was calculated using Graphit (IC50 0-100%).
For the molecule `CCCCCCCCCCN(CCN(CCCCCCCCCC)S(=O)(=O)c1ccc(O)c(O)c1)S(=O)(=O)c1ccc(O)c(O)c1` [C168], the IC50 stood at 1.98 µM.

In the case of `CCCCCCCCN(CCCCCCCC)S(=O)(=O)c1ccc(O)c(O)c1` [C170], the IC50 was determined as 5.49 µM.

Take `CCCCCCN(CCCCCC)S(=O)(=O)c1ccc(O)c(O)c1` [C171]: the IC50 is 1.67 µM.

Consider `CCCCCCCCN(Cc1cc(Cl)c(O)c(Cl)c1)S(=O)(=O)c1ccc(O)c(O)c1` [C172], for which the IC50 was found to be 1.98 µM.
